Like-named read-outs stand apart in the source and are kept apart here. Where a SMILES comes first, the peptide text is derived from it. [ ]: non-standard residue; d: D form. Nleu = CC(C)CNCC(=O)O; Nlys = NCCCCNCC(=O)O
Experiments:
S. maltophilia = test system: S. maltophilia
How it was run: (§1)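 Using MTT as a visual viability dye, MICs were scored as the lowest concentration with no visible growth. Prior to staining, ~5 × 10^5 CFU per well grew in MH medium for ca. 18 h at 37 °C under static conditions.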

B. cenocepacia = conditions: pH 7.4
How it was run: as §1

S. epidermis = test system: S. epidermis
How it was run: as §1

S. aureus Newman = conditions: Newman
How it was run: as §1

P. aeruginosa PA14 = test system: P. aeruginosa PA14
How it was run: as §1

E. coli W3110 = test system: E. coli W3110
How it was run: as §1

PA14 2P4 (pmrB) = test system: PA14 2P4 (pmrB)
How it was run: as §1

PA14 4.13 (phoQ) = test system: PA14 4.13 (phoQ)
How it was run: as §1

S. aureus COL (MRSA) = conditions: COL, 4 h
How it was run: as §1

[1] = test system: ZEM9A (clinical MDR P. aeruginosa isolate)
How it was run: as §1

E. cloacae = test system: E. cloacae
How it was run: as §1

K. pneumoniae OXA-48 = test system: K. pneumoniae OXA-48
How it was run: as §1

[2] = test system: ZEM-1A (clinical MDR P. aeruginosa isolate); conditions: CSV
How it was run: as §1

PA14 4.18 (pmrB) = test system: PA14 4.18 (pmrB)
How it was run: as §1

[3] = test system: human red blood cells (hRBC); experiment: Minimum hemolytic concentration (MHC); type: cell-based
Description: We also measured minimal hemolysis concentrations (MHC) on human red blood cells by serial 2-fold dilution as an indication of toxicity against eukaryotic cells (Table 1).

CC(C)C[C@H](NC(=O)[C@H](CC(C)C)NC(=O)[C@H](CC(C)C)NC(=O)[C@H](CCCCN)NC(=O)[C@H](CC(C)C)NC(=O)[C@H](CC(C)C)NC(=O)CN(CCCCN)C(=O)CN(CC(C)C)C(=O)CN(CC(C)C)C(=O)CN(CCCCN)C(=O)CNCCCCN)C(N)=O [EB5, kkllkLLKLLL] (H-[Nlys][Nlys][Nleu][Nleu][Nlys]LLKLLL-NH2)
32 ug/mL: MIC P. aeruginosa PA14 4.18, full MH at pH 7.4 (PA14 4.18 (pmrB); CSV, full MH at pH 7.4)
6 ug/mL: MIC S. epidermis, full MH at pH 7.4 (S. epidermis; 4 h, pH 7.4) | MIC P. aeruginosa PA14, full MH at pH 7.4 (P. aeruginosa PA14; PA14, 4 h, pH 7.4)
>32 µg/mL: MIC B. cenocepacia (B. cenocepacia) | MIC S. aureus Newman (S. aureus Newman; pH 7.4) | MIC PA14 2P4 (pmrB) (PA14 2P4 (pmrB); MH pH 7.4, 16–20 h at 37 °C)
1000 µg/mL: MHC [3]
250 to 1000 µg/mL: MHC (hemolysis) ([3]; red cells of human)
4 to 8 µg/mL: MIC S. maltophilia (S. maltophilia; 4 h, pH 8.5) | MIC S. epidermis (S. epidermis; pH 7.4) | MIC P. aeruginosa PA14 (P. aeruginosa PA14; PA14, pH 7.4)
4 µg/mL: MIC E. cloacae (E. cloacae; 4 h, pH 8.5)
>32 ug/mL: MIC B. cenocepacia, full MH at pH 7.4 (B. cenocepacia; 4 h) | MIC S. aureus Newman, full MH at pH 7.4 (S. aureus Newman; 4 h, pH 7.4) | MIC E. coli W3110, full MH at pH 8.5 (E. coli W3110; CSV, full MH at pH 8.5) | MIC P. aeruginosa PA14 2P4, full MH at pH 7.4 (PA14 2P4 (pmrB); CSV, full MH at pH 7.4) | MIC S. aureus COL (MRSA), full MH at pH 8.5 (S. aureus COL (MRSA); pH 8.5) | MIC K. pneumoniae OXA-48, full MH at pH 7.4 (K. pneumoniae OXA-48; CSV, full MH at pH 7.4)
2 ug/mL: MIC E. coli W3110, […] MH at pH 7.4 (E. coli W3110; CSV, […] MH at pH 7.4) | MIC E. coli W3110, […] MH at pH 8.5 (E. coli W3110; CSV, […] MH at pH 8.5) | MIC E. coli W3110, full MH at pH 7.4 (E. coli W3110; CSV, full MH at pH 7.4) | MIC P. aeruginosa PA14 2P4, […] MH at pH 8.5 (PA14 2P4 (pmrB); CSV, […] MH at pH 8.5) | MIC P. aeruginosa PA14 4.13, […] MH at pH 8.5 (PA14 4.13 (phoQ); CSV, […] MH at pH 8.5) | MIC P. aeruginosa ZEM9A, […] MH at pH 8.5 ([1]; CSV, […] MH at pH 8.5) | MIC P. aeruginosa ZEM-1A, […] MH at pH 8.5 ([2]; […] MH at pH 8.5) | MIC P. aeruginosa ZEM-1A, full MH at pH 7.4 ([2]; full MH at pH 7.4) | MIC P. aeruginosa PA14 4.18, […] MH at pH 8.5 (PA14 4.18 (pmrB); CSV, […] MH at pH 8.5)
32 to 64 µg/mL: MIC K. pneumoniae OXA-48 (K. pneumoniae OXA-48; MH pH 7.4, 16–20 h at 37 °C)
2 µg/mL: MIC S. epidermis (S. epidermis; 4 h, pH 8.5) | MIC S. aureus Newman (S. aureus Newman; 4 h, pH 8.5) | MIC P. aeruginosa PA14 (P. aeruginosa PA14; PA14, pH 8.5) | MIC E. coli W3110 […] (E. coli W3110; diluted MH ([…] MH, pH 8.5) per Table 1 footnote b, 16–20 h at 37 °C) | MIC P. aeruginosa PA14 2P4 (PA14 2P4 (pmrB); Table S3, […] MH at pH 8.5) | MIC P. aeruginosa PA14 4.13 (PA14 4.13 (phoQ); Table S3, […] MH at pH 8.5) | MIC P. aeruginosa ZEM9A ([1]; Table S3, […] MH at pH 8.5) | MIC P. aeruginosa PA14 4.18 (PA14 4.18 (pmrB); Table S3, […] MH at pH 8.5)
8 µg/mL: MIC S. maltophilia (S. maltophilia; pH 7.4) | MIC PA14 4.13 (phoQ) (PA14 4.13 (phoQ); MH pH 7.4, 16–20 h at 37 °C) | MIC ZEM9A ([1]; MH pH 7.4, 16–20 h at 37 °C) | MIC K. pneumoniae OXA-48 (K. pneumoniae OXA-48; Table S3, […] MH at pH 8.5)
8 ug/mL: MIC S. maltophilia, full MH at pH 7.4 (S. maltophilia; 4 h, pH 7.4) | MIC P. aeruginosa PA14 4.13, full MH at pH 7.4 (PA14 4.13 (phoQ); CSV, full MH at pH 7.4) | MIC S. aureus COL (MRSA), full MH at pH 7.4 (S. aureus COL (MRSA); pH 7.4) | MIC P. aeruginosa ZEM9A, full MH at pH 7.4 ([1]; CSV, full MH at pH 7.4) | MIC K. pneumoniae OXA-48, […] MH at pH 8.5 (K. pneumoniae OXA-48; CSV, […] MH at pH 8.5)
8 to 16 µg/mL: MIC E. cloacae (E. cloacae; pH 7.4)
32 µg/mL: MIC PA14 4.18 (pmrB) (PA14 4.18 (pmrB); MH pH 7.4, 16–20 h at 37 °C)
12 ug/mL: MIC E. cloacae, full MH at pH 7.4 (E. cloacae; 4 h, pH 7.4)
